“And” between values parts separate entries of the source, which are not always exact repeats. Equal values may be shown once. “Also recorded” adds a separate entry of the source. Read-outs that look alike come from different tables or passages of the source.

For orientation: IC50 means the concentration that gives 50% inhibition.

The subject of series [1] is Cells exposed to TPrP. The following applies: for EC50: read-out: Viability EC50.
The test system of series [2] is Cells exposed to TPrP. Briefly: cells. The following applies: read-out: Viability EC50.
Series [3] relates to Human stem cell-derived neurons. The series can be described thus: Cellular PD model, α-synuclein PFFs-seeded human neurons. It is filed as cell-based. Particulars: 2 μM, PFFs 50 μg/ml, 17 days. How it is done:
Human stem cell-derived neurons (30 days post-differentiation) were seeded with 50 μg/ml preformed α-synuclein fibrils (PFFs), treated with DMCM-10049 at 2 μM or vehicle, and fixed 17 days later for analysis. Control cells were not PFFs-seeded. A: Dendritic spines were labeled with the marker F-actin using Phalloidin-iFluor 488 (Abcam). B: pα-syn* (red, antibody GTX50222, GeneTex)+DAPI (blue) staining. Quantification was done using ImageJ (NIH), statistical analysis with one way ANOVA (Prism7). Mean values and SDs of 8 images (A) or 6 images (B) per each condition are shown. ****P<0.0001; ***P<0.001; ns=non significant.

The next series concerns GABAA R subtypes. The following applies: relative to DMCM; cited from earlier work.
Another series has as its target PARP-1 (Homo sapiens, UniProt P09874). Briefly: PARP1 chemiluminescent assay kit (BPS Bioscience). In kind it is biochemical. Particulars: FIG. 15. On the procedure:
ABT-888 is a known PARP1 inhibitor serving as pharmacological control for the assay. […] The assay was performed using the BPS Bioscience PARP1 chemiluminescent assay kit according to the manufacturer's instructions.

Series [4] concerns PK1 neuroblastoma cells treated with TPrP. The series can be described thus: cells. It is filed as cell-based. Particulars: Neuroblastoma cell.
The test system of series [5] is Murine stem-cell derived neurons. Briefly: Cellular PD/synucleinopathy model, PFFs-seeded murine neurons, neurite length. It is filed as cell-based. The following applies: FIG. 14. On the procedure:
Murine stem-cell derived neurons (8 days post-differentiation) were seeded with PFFs (A, B: 4 μg/ml; C, D: 3 μg/ml) and treated with the test compounds at the dose indicated, or with the vehicle DMSO, during the last 2 days of differentiation. Control cells were not PFFs-seeded. Cells were photographed by phase contrast microscopy. Neurite length was quantified using the NeuronJ plugin of ImageJ (NIH), statistical analysis was done in pairs by comparing compound-treated cells with the DMSO control (student's t-test, Prism8). Mean values and SEMs of 4 fields per each condition are shown. Each field contained approximately 50 to 100 neurons. Images shown correspond to a representative area of one field. ****P<0.0001; ***P<0.001; **P<0.01; *P<0.05; ns=not significant.

For series [6], the system named is PK1 neuroblastoma cells treated with TPrP. The series can be described thus: cells. It is filed as cell-based. Particulars: for EC50: Neuroblastoma cell.
Series [7] concerns Primary mouse cortical neurons. In kind it is cell-based.
Series [8] deals with PK1 cells treated with TPrP. It is filed as cell-based.
The target in another series is T1, NAMPT (Homo sapiens, UniProt P43490).
T1 construct: purchased Abcam ab221819
T1 sequence (P43490 whole entry): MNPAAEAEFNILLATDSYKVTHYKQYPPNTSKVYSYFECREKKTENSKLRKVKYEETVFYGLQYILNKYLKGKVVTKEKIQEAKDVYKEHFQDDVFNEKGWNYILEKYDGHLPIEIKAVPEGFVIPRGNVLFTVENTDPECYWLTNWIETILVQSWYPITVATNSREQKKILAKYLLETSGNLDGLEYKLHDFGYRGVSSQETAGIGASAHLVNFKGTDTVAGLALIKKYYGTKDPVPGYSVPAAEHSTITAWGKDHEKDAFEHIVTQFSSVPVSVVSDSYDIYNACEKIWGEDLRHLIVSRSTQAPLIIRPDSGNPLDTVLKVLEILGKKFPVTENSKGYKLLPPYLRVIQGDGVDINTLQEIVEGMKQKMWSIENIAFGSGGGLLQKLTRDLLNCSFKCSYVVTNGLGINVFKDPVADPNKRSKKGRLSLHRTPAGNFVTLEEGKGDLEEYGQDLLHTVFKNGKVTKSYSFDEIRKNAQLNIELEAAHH
Briefly: Colorimetric NAMPT activity assay (Abcam, ab221819). It is filed as biochemical. Particulars: tested at 5 μM or 20 μM. How it is done:
Compounds were tested in a colorimetric NAMPT activity assay (Abcam, ab221819). Each data point represents a duplicate sample. […] Compounds were tested at 5 μM (A) or 20 μM (B).

The target of series [9] is T2, VEGFR-1 (Homo sapiens, UniProt P17948). Briefly: VEGFR inhibition of vatalanib analogs. It is filed as biochemical. The following applies: relative to vatalanib.
T2 sequence (P17948 27-1338, species assumed): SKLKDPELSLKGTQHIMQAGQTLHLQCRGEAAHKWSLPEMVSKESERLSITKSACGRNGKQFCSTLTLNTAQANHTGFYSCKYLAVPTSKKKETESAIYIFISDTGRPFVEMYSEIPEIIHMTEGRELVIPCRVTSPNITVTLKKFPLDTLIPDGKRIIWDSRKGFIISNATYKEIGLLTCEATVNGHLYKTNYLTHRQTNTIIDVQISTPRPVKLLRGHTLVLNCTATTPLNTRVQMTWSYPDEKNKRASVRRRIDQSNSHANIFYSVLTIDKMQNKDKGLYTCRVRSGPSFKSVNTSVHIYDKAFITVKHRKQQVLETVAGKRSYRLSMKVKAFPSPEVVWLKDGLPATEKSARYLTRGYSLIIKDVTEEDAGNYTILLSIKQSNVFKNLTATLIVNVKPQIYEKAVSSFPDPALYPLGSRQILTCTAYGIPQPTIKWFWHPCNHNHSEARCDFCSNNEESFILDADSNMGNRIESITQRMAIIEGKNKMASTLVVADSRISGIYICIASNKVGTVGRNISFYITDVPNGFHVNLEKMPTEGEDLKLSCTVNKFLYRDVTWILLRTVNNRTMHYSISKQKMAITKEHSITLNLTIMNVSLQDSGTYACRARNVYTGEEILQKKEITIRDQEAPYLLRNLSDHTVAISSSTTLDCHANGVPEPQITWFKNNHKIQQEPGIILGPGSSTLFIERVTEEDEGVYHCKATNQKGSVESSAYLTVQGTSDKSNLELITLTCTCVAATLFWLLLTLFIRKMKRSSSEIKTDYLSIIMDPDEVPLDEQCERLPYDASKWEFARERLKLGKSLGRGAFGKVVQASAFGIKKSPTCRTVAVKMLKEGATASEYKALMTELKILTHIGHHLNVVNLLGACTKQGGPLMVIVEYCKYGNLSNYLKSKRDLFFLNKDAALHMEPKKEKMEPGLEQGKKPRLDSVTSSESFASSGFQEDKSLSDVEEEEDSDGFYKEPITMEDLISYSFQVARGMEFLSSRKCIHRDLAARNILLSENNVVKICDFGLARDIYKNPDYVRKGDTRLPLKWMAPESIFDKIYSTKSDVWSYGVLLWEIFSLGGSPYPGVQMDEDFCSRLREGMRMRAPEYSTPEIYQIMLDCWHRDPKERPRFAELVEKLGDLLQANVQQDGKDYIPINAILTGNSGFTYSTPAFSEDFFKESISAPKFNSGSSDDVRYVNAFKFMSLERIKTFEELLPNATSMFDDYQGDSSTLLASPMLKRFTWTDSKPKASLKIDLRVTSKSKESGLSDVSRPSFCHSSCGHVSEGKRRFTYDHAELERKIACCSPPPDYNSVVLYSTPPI
Series [10] addresses T2, VEGFR-1. The following applies: subtype not given; cited from earlier work.
The conditions of series [11]: in vivo; cited from earlier work.
For series [12], the system named is PK1 cells exposed to TPrP. It is filed as cell-based.
The mark [13] stands for this setting: read-out: EC50 (TPrP toxicity rescue / neuroprotection).

Chain of PARP-1 (P09874 whole entry): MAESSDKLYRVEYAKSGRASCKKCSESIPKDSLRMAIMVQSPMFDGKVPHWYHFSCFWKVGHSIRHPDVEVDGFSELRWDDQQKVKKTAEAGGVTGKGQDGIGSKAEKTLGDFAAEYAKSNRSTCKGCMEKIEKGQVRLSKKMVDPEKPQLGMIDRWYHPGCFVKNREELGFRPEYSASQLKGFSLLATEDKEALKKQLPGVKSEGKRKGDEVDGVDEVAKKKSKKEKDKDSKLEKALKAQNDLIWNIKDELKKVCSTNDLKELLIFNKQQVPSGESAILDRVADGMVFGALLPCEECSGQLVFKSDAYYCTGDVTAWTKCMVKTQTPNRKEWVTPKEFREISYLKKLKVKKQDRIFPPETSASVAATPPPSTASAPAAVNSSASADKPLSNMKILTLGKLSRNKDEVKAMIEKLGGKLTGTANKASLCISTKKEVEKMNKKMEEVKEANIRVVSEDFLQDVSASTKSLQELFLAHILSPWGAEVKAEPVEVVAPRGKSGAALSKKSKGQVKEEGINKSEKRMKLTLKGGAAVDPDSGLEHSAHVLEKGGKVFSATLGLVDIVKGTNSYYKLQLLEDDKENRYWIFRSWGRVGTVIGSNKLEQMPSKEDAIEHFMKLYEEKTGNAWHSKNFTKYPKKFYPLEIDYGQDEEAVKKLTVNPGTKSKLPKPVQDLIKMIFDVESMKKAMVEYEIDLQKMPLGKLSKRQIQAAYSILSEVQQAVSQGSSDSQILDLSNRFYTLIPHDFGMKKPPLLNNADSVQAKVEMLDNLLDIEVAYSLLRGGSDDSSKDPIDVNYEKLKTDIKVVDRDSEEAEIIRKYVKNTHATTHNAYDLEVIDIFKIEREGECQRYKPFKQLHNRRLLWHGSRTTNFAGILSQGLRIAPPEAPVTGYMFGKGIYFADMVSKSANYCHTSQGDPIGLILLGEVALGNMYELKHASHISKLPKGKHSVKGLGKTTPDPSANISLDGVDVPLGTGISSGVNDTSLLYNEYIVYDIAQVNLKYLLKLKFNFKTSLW

In the case of `CCc1c(C(=O)N[C@H]2CC[C@@H](N)CC2)ncc2[nH]c3cc(OC)c(OC)cc3c12` [DMCM-8137], the “neuroprotection in the TPrP neuroprotection assay” value in the series on Cells exposed to TPrP [1] is “neuroprotective”. In the series with Cells exposed to TPrP [2], the EC50 was about 500 nM.

Regarding `CCc1c(C(=O)NN)ncc2[nH]c3cc(OC)c(OC)cc3c12` [DMCM-10049], in series [3], the “dendritic spines (F-actin)” value was “preserves dendritic spines” and the “pα-syn* levels” value is reported as “reduces pα-syn* levels”. Also, the “reduced potency for most GABAA R subtypes” value with GABAA R subtypes is given as “over 100 ×”. Besides, at PARP-1, the PARP-1 inhibition entry was “absence of PARP-1 inhibition”. In addition, in the series with Cells exposed to TPrP [2], the EC50 was about 500 nM.

For `O=c1cc(-c2ccc(O)cc2)oc2cc(O)cc(O)c12` [SR1-75663, 5,7-dihydroxy-2-(4-hydroxyphenyl)-4H-chromen-4-one], the EC50 is over 10000 nM in [4] (read-out: NAD EC50) and 1700 nM in series [6] (read-out: Viability EC50). For the same molecule, the “loss of neurites induced by PFFs exposure” value (shortened to “loss of neurites induced”) in series [5] was “prevent loss of neurites”.

Take `CCc1c(C(=O)OC)ncc2[nH]c3cc(OC)c(OC)cc3c12` [SR1-75869, DMCM, reference compound]: the EC50 in series [4] (read-out: NAD EC50) is 749 nM. In series [7], the “neuritic breakdown and neuronal vacuolation induced by TPrP” value is listed as “suppressed”; the “rescue of TPrP-induced toxicity (cell viability)” value is reported as “rescues TPrP-induced toxicity”. Besides, the “excessive protein ADP ribosylation induced by TPrP” value in [8] is “mitigates excessive protein ADP ribosylation”. For the same molecule, the “Activation of NAMPT” value on NAMPT is “not”. In addition, the EC50 in [6] (read-out: Viability EC50) was 120 nM.

Consider `Cc1ccc(-c2nnc3c4ccccc4c(C)nn23)cc1S(=O)(=O)NC(C)(C)CO` [SR1-115259], for which the EC50 in series [4] (read-out: NAD EC50) was 167 nM; in [6] (read-out: Viability EC50), 5.1 nM. In addition, the “loss of neurites induced” value in series [5] is given as “prevent loss of neurites”. Besides, at NAMPT, the “Activation of NAMPT” value is recorded as “not”.

In the case of `CC(=O)c1cccc(Nc2nnc(Cc3ccncc3)c3ccccc23)c1` [SR1-134005], the EC50 in series [4] (read-out: NAD EC50) is 105 nM; in the series with Cells exposed to TPrP [2], 20 nM; in series [6] (setting [13]), 6.3 nM; in series [6] (read-out: Viability EC50), 6.3 nM. Besides, the “fold less potent than vatalanib at VEGFR-1” value on VEGFR-1 [9] was 13 fold. Also, at NAMPT, the “Activation of NAMPT” value is given as “Activation of NAMPT”. In addition, the PARP-1 inhibition entry at PARP-1 is reported as “absence of PARP-1 inhibition”. Further, the “fold more potent than vatalanib as a neuroprotective agent” value in series [6] is “more than 6 fold”.

For `COc1cc(Nc2nnc(Cc3ccncc3)c3ccccc23)cc(OC)c1` [SR1-151915], the EC50 in series [4] (read-out: NAD EC50) is 280 nM; in [6] (setting [13]) it was 71.4 nM; in [6] (read-out: Viability EC50) it was 71.4 nM. In addition, the IC50 at VEGFR-1 [10] was over 1000 nM.

As for `O=C(NCCCn1ccnc1)c1cnn2c(C(F)(F)F)cc(-c3ccccc3)nc12` [SR1-293229], the EC50 in series [4] (read-out: NAD EC50) was found to be 6.8 nM; with Cells exposed to TPrP [1] it was 2 nM; in the series on Cells exposed to TPrP [2], 1.5 nM; in series [6] (read-out: Viability EC50) it was 1.9 nM. In addition, in series [5], the “loss of neurites induced” value is “prevent loss of neurites”. Further, the “Activation of NAMPT” value on NAMPT is “not”. The PARP-1 inhibition result at PARP-1 is recorded as “absence of PARP-1 inhibition”.

Regarding `NS(=O)(=O)c1ccc(Nc2nc(-c3ccncc3)cs2)cc1` [SR1-477186], the figures for the EC50 in series [4] (read-out: NAD EC50) and in series [6] (read-out: Viability EC50) were 365 nM and 26 nM, respectively. In series [5], the “loss of neurites induced” value was “prevent loss of neurites”. At NAMPT, the “Activation of NAMPT” value is “not”.

In the case of `Cc1nc(C)c(-c2csc(Nc3ccc(S(N)(=O)=O)cc3)n2)s1` [SR1-477302], the EC50 in [4] (read-out: NAD EC50) is 103 nM; in the series on Cells exposed to TPrP [1] it was 18 nM and 30 nM; in series [6] (read-out: Viability EC50), 14 nM.

With `Cc1ccc(-c2nnc3c4ccccc4c(C)nn23)cc1S(=O)(=O)N1CCOCC1` [SR5-22843], the EC50 in series [4] (read-out: NAD EC50) came out at 219 nM; in series [6] (read-out: Viability EC50), 30 nM. For the same molecule, the PARP-1 inhibition result on PARP-1 is recorded as “absence of PARP-1 inhibition”.

Consider `COc1ccc(-c2cc(=O)c3c(OC)c(OC)c(OC)c(OC)c3o2)cc1OC` [SR-01000712262, 2-(3,4-dimethoxyphenyl)-5,6,7,8-tetramethoxy-4H-chromen-4-one], for which the EC50 is 664 nM in [4] (read-out: NAD EC50) and 580 nM in series [6] (read-out: Viability EC50). Further, in series [5], the “loss of neurites induced” value was “prevent loss of neurites”. Moreover, the “Activation of NAMPT” value at NAMPT is given as “not”. The PARP-1 inhibition entry at PARP-1 is reported as “absence of PARP-1 inhibition”.

Take `Clc1ccc(Nc2nnc(Cc3ccncc3)c3ccccc23)cc1` [Vatalanib, reference compound]: the EC50 was 195 nM in series [4] (read-out: EC50 (NAD assay)); 195 nM in [4] (read-out: NAD EC50); 45 nM in the series with Cells exposed to TPrP [2]; 39.9 nM in series [6] (setting [13]); 40 nM in [6] (read-out: Viability EC50). In addition, the “loss of neurites induced” value in [5] is reported as “prevent loss of neurites”. In [11], the oral bioavailability result is listed as “high”.

On to `CCOC(=O)c1ncn2c1CN(C)C(=O)c1cc(F)ccc1-2` [flumazenil], for which, in [12], the “protection against TPrP toxicity” value is “neither rescued TPrP-induced toxicity; also recorded: absence of protection”.

NAD: in series [7], the “neuritic breakdown and neuronal vacuolation induced by TPrP” value is “suppressed”.

These data come from patent publication US12590094B2, “Compounds for the treatment of neurodegenerative and metabolic disorders” (UNIVERSITY OF FLORIDA RESEARCH FOUNDATION, INCORPORATED, priority 2019, dated 2026).
